# Laboratory results as given in patent US10611799B2, “Anti-endotoxin polypeptide” (priority 2017, dated 2020).
# Entries after “also recorded” stand apart in the source; their conditions may differ. No end group written: not given here.
# How the values were obtained:
# [1] = test system: LPS (Control Standard Endotoxin); assay: Binding and neutralization of LPS, Limulus Amebocyte Lysate (LAL) assay; type: biochemical; details: peptide 8-128 μg/mL, CSE 5EU
# Method: The abilities of the anti-endotoxin polypeptides to bind and neutralize LPS were assessed using Limulus Amebocyte Lysate (LAL) assay (Cape Cod Inc, East Falmouth, Mass., USA). 25 μL of different peptide concentration (128, 64, 32, 16, and 8 μg/mL) were mixed with 25 μL CSE (Control Standard Endotoxin) (5EU) in a 96-well plate, and 50 μL of Pyrochrome® reagent was added to wells immediately. The absorbance at 405 nm was measured by microplate reader at 37° C. for 25 minutes.
# [2] = LPS aggregation, dynamic light scattering; details: peptide 8 and 16 μg/mL, LPS 25 μM
# Method: The LPS molecule were dissolved in chloroform:methanol (2:1) then the stock solution was sonicated at 40° C. for 20 minutes and then kept at 4° C. overnight. The stock solution were diluted to 25 μM by using 20 mM sodium phosphate buffer with 150 mM sodium chloride and then at 4° C. overnight for use. Peptide concentration was diluted to 8 or 16 μg/mL. After the LPS solution was interacted with the peptide solution, the particle size and distribution analysis was measured by dynamic light scattering in Malvern Zetasizer ZS (Malvern, UK).
# [3] = test system: gram-positive and negative bacteria; assay: Antibacterial activity and salt resistance, broth microdilution (MIC); type: cell-based
# Method: (§1) The antibacterial activities were determined by the standard broth microdilution method of National Committee for Clinical Laboratory Standards with the MH and LYM broth. MH or LYM broth with 50, 100, 200, or 300 mM NaCl (containing 5.4 mM KCl, 5.6 mM Na2HPO4, 0.5 mM MgSO4, and 1.0 mM sodium citrate, 0.4 mg of ZnCl2, 2.0 mg of FeCl3.6H2O, 0.1 mg of CuSO4.5H2O, 0.1 mg of MnSO4.H2O, 0.1 mg of Na2B4O7.10H2O, 700 mg of amino acid mixtures without tryptophan (Clontech), and 20 mg of L-Tryptophan, 2% vitamin mixture (100×, Sigma) and glucose at final concentration of 2%) were used to serially dilute the anti-endotoxin polypeptide of the present invention to obtain anti-endotoxin polypeptide solutions with a concentration ranging from 3,200 to 100 μg/mL.
# (§2) 1 μL of peptide solutions were mixed with 99 μL inoculums (5×10^5 CFU/mL) in polypropylene 96-well plates, respectively. The turbidity at OD600 nm was determined by ELISA plate reader (Thermo Max, Molecular Devices, Sunnyvale, Calif.). The absorbance of culture medium and inoculum without peptides were used as the negative and positive control, respectively. […] All peptides were tested in triplicate. […] KR12AGPKR6 peptide was very effective against bacteria in LYM broth condition (MIC=about 2 μg/mL).
# [4] = Peptide-induced calcein leakage of POPC/LPS LUVs
# Method: (§3) In this embodiment, the large unilamellar vesicles (LUVs) of POPC/LPS (POPC:LPS=12.5:1 mol/mol), POPC/cholesterol (POPC:cholesterol=2:1 mol/mol), and POPC:POPG (POPC:POPG=3:1 mol/mol) were prepared by the extrusion method with Avanti small-volume extrusion apparatus (Avanti Polar Lipid). Calcein-filed LUVs were prepared by calcein-containing buffer (70 mM calcein and 10 mM Tris at pH 7.4). Peptide-induced calcein leakages were measured by Perkin-Elmer luminescence spectrofluorimeter at excitation and emission wavelengths of 496 and 515 nm, respectively. Leakage is expressed as a percentage relative to the total amount of dye released by addition of 100 mg/mL of Triton X-100, which represented 100% leakage (the maximum fluorescence intensity).
# (§4) The degree of leakage induced by various concentrations of polypeptides was estimated by: % leakage=(F−F0)/(Fr−F0)×100%, wherein the F0 is the initial fluorescence intensity observed without peptide, and Fr is the fluorescence intensity of 100% leakage.
# [5] = test system: Acinetobacter sp.; assay: Antibacterial activity, broth microdilution, Acinetobacter sp.; type: cell-based
# Method: as §1, §2
# [6] = Peptide-induced calcein leakage of POPC/POPG LUVs
# Method: as §3, §4
# [7] = Cytotoxicity, MTT assay; type: cell-based; details: mouse, J744A.1 cells, 64 μg/mL, read-out: survival rate
# Method: In this embodiment, the cytotoxicity was evaluated by MTT assay. J744A.1 cells were seeded in a 96-well plate with 10^4 cells/100 μL/well and incubated for 24 hours. After removing the medium, 100 μL of fresh medium containing anti-endotoxin polypeptide (2 to 64 μg/mL) was added to the wells. After 24 hours incubation, the fresh medium with 0.5 mg/mL MTT was added and incubated for 3 hours. After the medium/MTT was removed, DMSO was added at 100 μL for dissolving the formazan crystal. Cell survival rate was calculated by measuring the absorbance at 450 nm using Multi-labeled Microplate Reader (VICTOR 3).
# [8] = test system: E. coli O26:B6 LPS-induced endotoxemia; assay: Mouse model of endotoxemia; type: in vivo, C57BL/6 mice; details: 18 mg/kg LPS plus 10 mg/kg peptide i.p.
# Method: 5-week old male C57BL/6 mice were purchased from National Laboratory Animal Center (Taiwan). Mice were divided into three groups (five in each group) with intraperitoneal (i.p.) injection of (a) 18 mg/kg of body weight E. coli O26:B6 LPS, (b) 18 mg/kg body weight LPS plus 10 mg/kg peptide, and (c) no treatment. Blood was collected via tail vein 1.5 hours after injection. Whole blood was centrifuged at 3,000 rpm at 4° C. for 10 minutes. After 24 hours, all mice were sacrificed. The lungs were removed and fixed in 4% formaldehyde buffer, and deparaffinized in UltraClear buffer (J. K. Baker) and graded ethanol. Histology of lung sections was performed by hematoxylin and eosin (H&E) staining. Tissue images were captured using light microscope (Eclipse E400, Nikon) with digital microscopy camera (AxioCam ICc 5, ZEISS).
# [9] = test system: TNF-α release in J744A.1 cells; assay: Inhibition of LPS-induced TNF-α release (ELISA); type: cell-based; details: LPS 150 ng/mL, peptide 2-32 μg/mL, 24 hours
# Method: (§5) J744A.1 cells (3×10^5 cells) were seeded in a 24-well plate and incubated for 24 hours. Cells were washed by PBS and LPS (E. coli 026:B6 (SIGMA, 150 ng/mL)) and the anti-endotoxin polypeptide of the present invention (2-32 μg/mL) were added to the wells. After 24 hours treatment, culture supernatant was harvested and centrifuged at 1,000 rpm for 10 minutes. 50 μL of culture supernatant was mixed with 50 μL Griess reagent (SIGMA) in a 96-well plate and incubated at room temperature for 10 minutes. The absorbance at 540 nm was measured and the NO concentration was calculated. Additionally, the concentration of TNF-α in the culture supernatant was evaluated using ELISA kits (eBiosciences).
# [10] = POPC/LPS LUVs aggregation, dynamic light scattering; details: peptide 8 and 16 μg/mL
# [11] = test system: NO production in J744A.1 cells; assay: Inhibition of LPS-induced NO production (Griess reagent); type: cell-based; details: LPS 150 ng/mL, peptide 2-32 μg/mL, 24 hours
# Method: as §5
# [12] = relative to Triton X-100 = 100%
Substance,LPS-neutralizing activity (LAL assay) [1],LPS aggregation and particle size [2],antibacterial activity ([3]; MH or LYM broth),calcein leaking activity [4],antibacterial effectiveness compared to other bacteria strain [5],calcein leaking activity [6],antibacterial activity ([3]; 300 mM salt condition),antibacterial activity ([3]; 200 mM NaCl),antibacterial activity ([3]; low NaCl condition),"viability at 24 h, 64 µg/mL [7] [%]",level of TNF-α in blood ([8]; blood 1.5 hours after injection),"proliferation of alveolar epithelial cells and pulmonary hemorrhage (lung histology) ([8]; lungs after 24 hours, H&E)","calcein leakage [4, 12]",inhibition of TNF-α release [9],POPC/LPS LUVs aggregation and particle size [10],"calcein leakage [6, 12] [%]",inhibition of NO production [11],minimum inhibitory concentration (MIC) ([3]; high salt conditions) [mg/L]
KRIVQRAGPIKDFLR (The anti-endotoxin polypeptide synthesized from the laboratory) [KR15AGP],only small effects,did not aggregate LPS and change particle size,did not show any activity,–,–,–,–,–,–,–,–,–,–,–,–,–,–,–
KRIVQRIKDFLRAGPIKDFLR [KR12AGPKR6],only small effects,did not aggregate LPS and change particle size,–,show leaking activities; also recorded: does-dependent calcein leaking activities,more effective,show leaking activities; also recorded: does-dependent calcein leaking activities,inactive totally,–,–,–,–,–,–,–,–,–,–,–
KRIVQRIKDFLRAGPRRLVRI (The anti-endotoxin polypeptide synthesized from the laboratory) [KR12AGPVR6],only small effects,did not aggregate LPS and change particle size,–,show leaking activities; also recorded: does-dependent calcein leaking activities,more effective,show leaking activities; also recorded: does-dependent calcein leaking activities,–,lost its activities,high activities,–,–,–,–,–,–,–,–,–
Ac-KRIVQRIKDFLRAGPRRWWRW-NH2 (N-terminus and C-terminus assumed) [KR12AGPWR6],better LPS-neutralizing activity; also recorded: neutralize downstream reaction dose-dependently,promoted,–,show leaking activities; also recorded: does-dependent calcein leaking activities,more effective,show leaking activities; also recorded: does-dependent calcein leaking activities,–,–,–,~70,significantly lower; also recorded: suppress,significantly decreased; also recorded: improve,about 80%,inhibited,promoted,~70,inhibit concentration-dependently,2 to 4
